{"source": "paper PMC10208956", "about": "“Microbial peptides activate tumour-infiltrating lymphocytes in glioblastoma” (Nature, 2023)", "key": {"[1]": {"test_system": "isolated TIL-derived CD4+ TCCs", "test": "All isolated TCCs tested against SIN3A* peptide: IFNγ ELISA", "format": "cell-based, human", "parameters": "unit not given beside the values"}, "[2]": {"test_system": "autologous glioblastoma cells", "test": "T cell cytotoxicity assay of TCC88 against the autologous tumour cell line", "format": "cell-based, human", "settings": "TCC88 stimulated with 2 µM peptide for 72 h; E:T 1:1 and 5:1; 24 h; duplicates; Fig. 3f", "from_the_text": "Fig. 3 Bacteria-derived and microbiota-derived peptides can stimulate TCC88 as well as the tumour antigen. a, Peptides with the highest predicted stimulatory scores were identified by searching various databases (see Methods). Numbers of unique 10-mer peptides within each database, synthesized peptides, TCC88 stimulatory peptides and the corresponding percentage of stimulatory peptides within each database are shown. […] Cytokine and chemokine secretion of TCC88 was examined and compared upon stimulation with these three different antigens. A specific amount of each cytokine and chemokine (pg ml^−1) was calculated by subtracting the cytokines in the negative control cultures (no peptide control). f, Cytotoxicity of TCC88 against the autologous tumour cell line after stimulation with 2 µM of SIN3A* and HGM3 (data represent the mean percentage of two replicate wells). E:T, effector to target. g, TCC88 was tested with HGM3 (10 µM) or SIN3A* (10 µM) peptides or both together (each 10 µM), and ^3H-thymidine incorporation was measured after 3 days (data represent the mean SI value of three replicate wells ± s.e.m.). Also see Extended Data Figs. 3 and 4. Source data […]"}, "[3]": {"test_system": "bacteria/microbiota-reactive CFSEdim CD4+ TILs", "test": "Proliferation of expanded CFSEdim CD4+ TILs that responded to the bacteria/microbiota peptide pool", "format": "cell-based, human", "settings": "5 days; 4 replicate wells; Fig. 4d"}, "TCC88": {"test_system": "TCC88", "settings": "for Proliferation (SI), peptide dose titration: sheet f"}}, "note": "Where two headings read alike, the source gives them in different places."}
{"substance": "Ac-QPVEFNHAIHYVN-NH2 [SIN3A*]", "values": [{"measurement": "ΔIFN-γ", "setting": "[1]; TCC4, sheet 2b", "value": 149.53}, {"measurement": "ΔIFN-γ", "setting": "[1]; TCC11, sheet 2b", "value": 677.024}, {"measurement": "ΔIFN-γ", "setting": "[1]; TCC12, sheet 2b", "value": 3046.79}, {"measurement": "ΔIFN-γ", "setting": "[1]; TCC13, sheet 2b", "value": 3192.25}, {"measurement": "ΔIFN-γ", "setting": "[1]; TCC15, sheet 2b", "value": 3025.62}, {"measurement": "ΔIFN-γ", "setting": "[1]; TCC16, sheet 2b", "value": 180.455}, {"measurement": "ΔIFN-γ", "setting": "[1]; TCC20, sheet 2b", "value": 364.759}, {"measurement": "ΔIFN-γ", "setting": "[1]; TCC29, sheet 2b", "value": 1013.6}, {"measurement": "ΔIFN-γ", "setting": "[1]; TCC31, sheet 2b", "value": 514.2}, {"measurement": "ΔIFN-γ", "setting": "[1]; TCC33, sheet 2b", "value": 2998.1}, {"measurement": "ΔIFN-γ", "setting": "[1]; TCC35, sheet 2b", "value": 228.964}, {"measurement": "ΔIFN-γ", "setting": "[1]; TCC38, sheet 2b", "value": 2702.02}, {"measurement": "ΔIFN-γ", "setting": "[1]; TCC43, sheet 2b", "value": 1674.62}, {"measurement": "ΔIFN-γ", "setting": "[1]; TCC47, sheet 2b", "value": 2470.16}, {"measurement": "ΔIFN-γ", "setting": "[1]; TCC52, sheet 2b", "value": 3139.72}, {"measurement": "ΔIFN-γ", "setting": "[1]; TCC56, sheet 2b", "value": 642.429}, {"measurement": "ΔIFN-γ", "setting": "[1]; TCC57, sheet 2b", "value": 2874.97}, {"measurement": "ΔIFN-γ", "setting": "[1]; TCC60, sheet 2b", "value": 2990.72}, {"measurement": "ΔIFN-γ", "setting": "[1]; TCC63, sheet 2b", "value": 2437.29}, {"measurement": "ΔIFN-γ", "setting": "[1]; TCC64, sheet 2b", "value": 999.502}, {"measurement": "ΔIFN-γ", "setting": "[1]; TCC68, sheet 2b", "value": 1874.1}, {"measurement": "ΔIFN-γ", "setting": "[1]; TCC71, sheet 2b", "value": 665.867}, {"measurement": "ΔIFN-γ", "setting": "[1]; TCC74, sheet 2b", "value": 114.375}, {"measurement": "ΔIFN-γ", "setting": "[1]; TCC75, sheet 2b", "value": 2585.8}, {"measurement": "ΔIFN-γ", "setting": "[1]; TCC76, sheet 2b", "value": 3066.75}, {"measurement": "ΔIFN-γ", "setting": "[1]; TCC80, sheet 2b", "value": 218.522}, {"measurement": "ΔIFN-γ", "setting": "[1]; TCC88, sheet 2b", "value": 3049.73}, {"measurement": "ΔIFN-γ", "setting": "[1]; TCC90, sheet 2b", "value": 3011.57}, {"measurement": "ΔIFN-γ", "setting": "[1]; TCC91, sheet 2b", "value": 1519.81}, {"measurement": "ΔIFN-γ", "setting": "[1]; TCC92, sheet 2b", "value": 2090.54}, {"measurement": "ΔIFN-γ", "setting": "[1]; TCC93, sheet 2b", "value": 2670.59}, {"measurement": "ΔIFN-γ", "setting": "[1]; TCC94, sheet 2b", "value": 2350.89}, {"measurement": "ΔIFN-γ", "setting": "[1]; TCC96, sheet 2b", "value": 2552.89}, {"measurement": "ΔIFN-γ", "setting": "[1]; TCC97, sheet 2b", "value": 2298.23}, {"measurement": "ΔIFN-γ", "setting": "[1]; TCC98, sheet 2b", "value": 2713.07}, {"measurement": "ΔIFN-γ", "setting": "[1]; TCC99, sheet 2b", "value": 3298.51}, {"measurement": "ΔIFN-γ", "setting": "[1]; TCC101, sheet 2b", "value": 3002.86}, {"measurement": "ΔIFN-γ", "setting": "[1]; TCC102, sheet 2b", "value": 3070.31}, {"measurement": "ΔIFN-γ", "setting": "[1]; TCC103, sheet 2b", "value": 2311.95}, {"measurement": "ΔIFN-γ", "setting": "[1]; TCC104, sheet 2b", "value": 2494.03}, {"measurement": "ΔIFN-γ", "setting": "[1]; TCC107, sheet 2b", "value": 2341.01}, {"measurement": "ΔIFN-γ", "setting": "[1]; TCC109, sheet 2b", "value": 2148.29}, {"measurement": "ΔIFN-γ", "setting": "[1]; TCC110, sheet 2b", "value": 2115.13}, {"measurement": "ΔIFN-γ", "setting": "[1]; TCC111, sheet 2b", "value": 2750.31}, {"measurement": "ΔIFN-γ", "setting": "[1]; TCC112, sheet 2b", "value": 334.245}, {"measurement": "ΔIFN-γ", "setting": "[1]; TCC113, sheet 2b", "value": 2127.79}, {"measurement": "ΔIFN-γ", "setting": "[1]; TCC114, sheet 2b", "value": 270.204}, {"measurement": "ΔIFN-γ", "setting": "[1]; TCC115, sheet 2b", "value": 2141.31}, {"measurement": "ΔIFN-γ", "setting": "[1]; TCC116, sheet 2b", "value": 2065.23}, {"measurement": "ΔIFN-γ", "setting": "[1]; TCC117, sheet 2b", "value": 2609.06}, {"measurement": "ΔIFN-γ", "setting": "[1]; TCC120, sheet 2b", "value": 5141.59}, {"measurement": "ΔIFN-γ", "setting": "[1]; TCC121, sheet 2b", "value": 3587.93}, {"measurement": "ΔIFN-γ", "setting": "[1]; TCC124, sheet 2b", "value": 8256.17}, {"measurement": "ΔIFN-γ", "setting": "[1]; TCC125, sheet 2b", "value": 202.234}, {"measurement": "ΔIFN-γ", "setting": "[1]; TCC126, sheet 2b", "value": 7530.28}, {"measurement": "ΔIFN-γ", "setting": "[1]; TCC127, sheet 2b", "value": 9381.79}, {"measurement": "ΔIFN-γ", "setting": "[1]; TCC128, sheet 2b", "value": 4427.79}, {"measurement": "ΔIFN-γ", "setting": "[1]; TCC129, sheet 2b", "value": 4034.06}, {"measurement": "ΔIFN-γ", "setting": "[1]; TCC130, sheet 2b", "value": 4723.17}, {"measurement": "ΔIFN-γ", "setting": "[1]; TCC131, sheet 2b", "value": 125.708}, {"measurement": "ΔIFN-γ", "setting": "[1]; TCC132, sheet 2b", "value": 7560.44}, {"measurement": "ΔIFN-γ", "setting": "[1]; TCC133, sheet 2b", "value": 4444.38}, {"measurement": "ΔIFN-γ", "setting": "[1]; TCC134, sheet 2b", "value": 2468}, {"measurement": "ΔIFN-γ", "setting": "[1]; TCC135, sheet 2b", "value": 4703.02}, {"measurement": "ΔIFN-γ", "setting": "[1]; TCC137, sheet 2b", "value": 3613.61}, {"measurement": "ΔIFN-γ", "setting": "[1]; TCC138, sheet 2b", "value": 0}, {"measurement": "cytotoxic activity against autologous glioblastoma cells (in words)", "setting": "[2]", "value": "comparable"}, {"measurement": "recognition by CD4+ TILs pre-stimulated with the bacteria/microbiota peptide pool, by proliferation and/or GM-CSF secretion (in words)", "setting": "[3]", "value": "recognized"}, {"measurement": "SI: TCC88", "setting": "TCC88; 3 h", "value": 20.6}, {"measurement": "Proliferation (SI), peptide dose titration", "setting": "TCC88; peptide concentration 10-1 (unit not given), replicate 1", "value": 42.2997}, {"measurement": "Proliferation (SI), peptide dose titration", "setting": "TCC88; peptide concentration 10-1 (unit not given), replicate 2", "value": 45.1904}, {"measurement": "Proliferation (SI), peptide dose titration", "setting": "TCC88; peptide concentration 10-1 (unit not given), replicate 3", "value": 49.4521}, {"measurement": "Proliferation (SI), peptide dose titration", "setting": "TCC88; peptide concentration 10-2 (unit not given), replicate 1", "value": 1.135}, {"measurement": "Proliferation (SI), peptide dose titration", "setting": "TCC88; peptide concentration 10-2 (unit not given), replicate 2", "value": 0.9523}, {"measurement": "Proliferation (SI), peptide dose titration", "setting": "TCC88; peptide concentration 10-2 (unit not given), replicate 3", "value": 1.168}, {"measurement": "Proliferation (SI), peptide dose titration", "setting": "TCC88; peptide concentration 10-3 (unit not given), replicate 1", "value": 0.8172}, {"measurement": "Proliferation (SI), peptide dose titration", "setting": "TCC88; peptide concentration 10-3 (unit not given), replicate 2", "value": 0.7497}, {"measurement": "Proliferation (SI), peptide dose titration", "setting": "TCC88; peptide concentration 10-3 (unit not given), replicate 3", "value": 0.8105}, {"measurement": "Proliferation (SI), peptide dose titration", "setting": "TCC88; peptide concentration printed 10, fifth line r7 (unit not printed), replicate 1", "value": 28.2921}, {"measurement": "Proliferation (SI), peptide dose titration", "setting": "TCC88; peptide concentration printed 10, fifth line r7 (unit not printed), replicate 2", "value": 32.0878}, {"measurement": "Proliferation (SI), peptide dose titration", "setting": "TCC88; peptide concentration printed 10, fifth line r7 (unit not printed), replicate 3", "value": 32.0203}, {"measurement": "Proliferation (SI), peptide dose titration", "setting": "TCC88; peptide concentration printed 10, fourth line r6 (unit not printed), replicate 1", "value": 44.2381}, {"measurement": "Proliferation (SI), peptide dose titration", "setting": "TCC88; peptide concentration printed 10, fourth line r6 (unit not printed), replicate 2", "value": 56.0371}, {"measurement": "Proliferation (SI), peptide dose titration", "setting": "TCC88; peptide concentration printed 10, fourth line r6 (unit not printed), replicate 3", "value": 57.6243}]}
